From patent publication US20260356879A1, “CELASTROL DERIVATIVES” (Celloram Inc., priority 2022, published 2026)
Entries after “also recorded” stand apart in the source; their conditions may differ.

Legend:
[1] = system: TNF-α secretion; assay: Secreted TNF-α in conditioned media of BMDC (ELISA), LPS+ATP or LPS+Nigericin; type: cell-based; settings: 63-500 nM, FIG. 2C
Experimental: FIG. 2A depicts western blot images showing the relative NLRP3 inflammasome activity of the compounds 22 (CLM-022) and 1 (CLM-001) by detecting the level of cellular ASC complex and the mature form of IL-1β (15 kDa) in a conditioned media of BMDCs treated with LPS (100 ng/ml) for 3 hours and then the compound at 50 nM, 100 nM, and 500 nM concentration for 30 min, followed by ATP or Nigericin. ASC monomer and β-Actin proteins were used as controls. FIG. 2B depict plots of results showing secreted IL-1β levels measured by ELISA using conditioned media of BMDC treated with the compound 22 or compound 1 at 63 nM, 125 nM, 250 nM, and 500 nM, under NLRP3 inflammasome activation induced either by LPS+ATP or LPS+Nigericin. FIG. 2C depict plots of results showing secreted TNF-α levels measured by ELISA using conditioned media of BMDC treated with the compound 22 or compound 1 at 63 nM, 125 nM, 250 nM, and 500 nM, under NLRP3 inflammasome activation induced either by LPS+ATP or LPS+Nigericin.
3. The secreted form of TNF-α, a NLRP3 inflammasome independent cytokine, induced by LPS+ATP or LPS+Nigericin were measured by ELISA assay using the conditioned media of BMDC treated with compound 1 (CLM-1) or compound 22 (CLM-022) at concentrations of 63, 125, 250, 500 nM under NLRP3 inflammasome activation induced either by LPS+ATP or LPS+Nigericin.

[2] = system: NF-kB target proteins iNOS, COX2, NLRP3, and IL-1β; assay: LPS-induced NF-kB target protein expression in BMDCs (western blot); type: cell-based; settings: BMDCs, 10, 25, 50 nM, LPS (500 ng/ml), FIG. 1C
Experimental: FIG. 1A depicts plots of relative NF-κB luciferase activity (RLU) for compound 22 and compound 1 (also referred to as “CLM-001”) assayed at 8-point concentrations (10 μM, 5 μM, […], 1.25 μM, 0.63 μM, 0.31 μM, 0.16 μM, […], and 0 μM). FIG. 1B depicts plots of the inhibitory concentrations (IC50) for compounds 22 (CLM-022) and 1 (CLM-001).
LPS-induced NF-kB target protein expression: Bone marrow-derived dendritic cells (BMDCs) were pre-treated with compound 22 or compound 1 at three concentrations (10 nM, 25 nM, 50 nM) for an hour and then treated overnight with LPS (500 ng/ml). The next day, the cells were subjected to western blotting for iNOS, COX2, NLRP3, and IL-1β.

[3] = system: NLRP3 inflammasome; assay: NLRP3 inflammasome assay in BMDCs: ASC complex formation (western blot); type: cell-based
Experimental: FIG. 2A depicts western blot images showing the relative NLRP3 inflammasome activity of the compounds 22 (CLM-022) and 1 (CLM-001) by detecting the level of cellular ASC complex and the mature form of IL-1β (15 kDa) in a conditioned media of BMDCs treated with LPS (100 ng/ml) for 3 hours and then the compound at 50 nM, 100 nM, and 500 nM concentration for 30 min, followed by ATP or Nigericin. ASC monomer and β-Actin proteins were used as controls. FIG. 2B depict plots of results showing secreted IL-1β levels measured by ELISA using conditioned media of BMDC treated with the compound 22 or compound 1 at 63 nM, 125 nM, 250 nM, and 500 nM, under NLRP3 inflammasome activation induced either by LPS+ATP or LPS+Nigericin. FIG. 2C depict plots of results showing secreted TNF-α levels measured by ELISA using conditioned media of BMDC treated with the compound 22 or compound 1 at 63 nM, 125 nM, 250 nM, and 500 nM, under NLRP3 inflammasome activation induced either by LPS+ATP or LPS+Nigericin. […]
1. […] After 30 minutes Nigericin (10 μM) or ATP (5 mM) was added (Signal 2) and the level of NLRP3-dependent inflammasome activity was determined by western blotting the treated cells with ASC complex (>48 kDa). […]

[4] = system: NLRP3 inflammasome; assay: Detection of ASC complex and caspase-1 activity in THP-1 cells by Amnis imaging flow cytometry; type: cell-based, human; settings: THP-1, LPS+Nigericin
Experimental: FIG. 3A shown images of western blot analysis of THP1 cells treated with LPS, and compound 1 (CLM-001) or compound 22, followed by Nigericin for NLRP3 inflammasome activation. The inflammasome ASC complex in the control cells (LPS+Nigericin) was compared with the treatment of compound 1 (CLM-001) (50 nM, 100 nM), compound 22 (CLM-022) (50 nM, 100 nM), and MCC950 (100 nM, 200 nM). FLICA (green) represents active caspase-1, ASC (red) complex is shown as a red speckle near the nucleus membrane, and DAPI stain for nucleus (blue) captured in the AMNIS analysis. FIG. 3B depicts the cell numbers stained as ASC+ (red) and FLICA+ (green) in the AMNIS were counted in order to compare the level of NLRP3 inflammasome activity in the cells treated as indicated (left). The ASC+ and FLICA+ cells were also plotted as a percentage of total cell count (right). […]
Amnis Imaging flow cytometry (Luminex Co.) is a high-throughput, single-cell, fluorescence-based image analysis method which can detect inflammasome by acquiring images of cellular distribution of ASC complex and active caspase-1. […] The treated cells were subjected to ASC staining and visualization of active caspase-1 using FLICA, a caspase-1 substrate exerting fluorescence upon cleavage. Finally, the ASC+/FLICA+ cells were counted as THP-1 cells with active NLRP3 inflammasome complex.

[5] = system: NLRP3 inflammasome; assay: IL-1β secretion in THP-1 macrophages, LPS + Nigericin; type: cell-based; settings: human THP-1 macrophages, FIG. 5C
Experimental: This example illustrates a comparative study of CLM-022 and MCC950 in inhibiting NLRP3 inflammasome activity in mouse and human macrophages.
To confirm the inhibitory effect of CLM-022 in human macrophages, THP-1 cells, a human leukemia monocytic cell line, were differentiated into macrophages using phorbol 12-myristate-13-acetate (PMA, 100 ng/ml) treatment for one day. The THP-1 macrophages were then treated with LPS (100 ng/ml) for 3 hours to induce the expression of inflammatory genes. Subsequently, the THP-1 cells were treated with CLM-022 or MCC950 in a dose range of 0-10 μM for 30 minutes. Then, to fully activate NLRP3-dependent inflammasome activity, Nigericin (10 μM) was added to the THP-1 cells for an additional 60 min.

Q: For CC1=C(O)C(=O)C=C2C1=CC=C1[C@@]2(C)CC[C@@]2(C)[C@@H]3C[C@](C)(N(C)C(=O)C(=O)N(C)C)CC[C@]3(C)CC[C@]12C [Compound 22, N′-[(2R,4aS,6aR,6aS,14aS,14bR)-10-hydroxy-2,4a,6a,6a,9,14a-hexamethyl-11-oxo-1,3,4,5,6,13,14,14b-octahydropicen-2-yl]-N,N,N′-trimethyl-oxamide], which “suppression of TNF-α secretion” value [1] is on record?
A: Its value is “no significant suppressive effect on TNF-α inflammatory cytokine secretion”.

Q: What about the “expression of LPS-induced NF-kB target proteins iNOS, COX2, NLRP3, and IL-1β” value [2] of the same molecule?
A: The value was “markedly inhibited expression of the LPS-induced NF-kB target proteins iNOS, COX2, NLRP3, and IL-1β in a dose-dependent fashion”.

Q: And the ASC complex formation ([3]; BMDCs, 50, 100, 500 nM, LPS then ATP or Nigericin, FIG. 2A)?
A: Its ASC complex formation is “suppressed ASC complex formation more strongly than compound 1”.

Q: And the NLRP3 inflammasome activity ([3]; BMDCs, compared with compound 1)?
A: Its NLRP3 inflammasome activity is “robust inhibitory function on NLRP3 inflammasome activity that was better than that observed for the parental molecule celastrol (compound 1)”.

Q: And the minimal effective concentration ([4]; Homo sapiens, FIG. 3C, read-out: concentration at which a strong inhibitory function was observed (as low as))?
A: Its minimal effective concentration is ≤ 0.025 µM.

Q: And the “inhibition of cellular ASC+FLICA+ specks / inflammasome complex” value ([4]; FIG. 3B)?
A: The value was “strong inhibitory effect; also recorded: inhibited NLRP3 inflammasome activity in THP1 and the cellular inflammasome complex as visualized by Amnis analysis”.

Q: And the IC50 ([5]; LPS (100 ng/ml) + Nigericin (10 μM), 0-10 μM, read-out: IC50 for inhibition of IL-1β secretion)?
A: Its IC50 is 0.159 µM.

Q: What about the “inhibition of IL-1β secretion” value ([5]; LPS + Nigericin) of the same molecule?
A: The value was “robustly inhibited IL-1β secretion”.
